Reference: EP2385818B1, “DIOLS AS ANTIPERSPIRANT AGENTS” (Beiersdorf Aktiengesellschaft, priority 2009, dated 2010)

Test system: schweißabgebenden Schweißdrüsen im Testareal
Test: Sweat reduction on the forearm of volunteers, sweating induced at 75 °C, silicone imprint count of active sweat glands versus untreated area (following Keskin et al.)
Type: in vivo, Probanden
Settings: for antitranspirant bzw. schweißhemmende Wirkung (Restschweißmenge im Vergleich zum unbehandelten Areal): forearm, after product application, result in words only; for AT-Wirkung, onset: measurable after the first application, no build-up by repeated application
Description: Die überraschende Antitranspirantwirksamkeit wurde in Studien zum AT-Wirkmechanismus der aromatischen Diole in wässrigen Systemen, unterschiedlichen Ölen und O/W-Emulsion untersucht (siehe Abbildung 1). In den Abbildungen ist die Restschweißmenge im Vergleich zum unbehandelten Areal nach Produktapplikation dargestellt. 100% Restschweißmenge entsprechen 0% Schweißreduktion. Die Schweißreduktion wurde in Anlehnung an M. Keskin et al. J. Invest. Dermatol. 1998; 110:591 gemessen. Bei den Messungen werden die Testsubstanzen auf dem Unterarm der Probanden angewendet. Die Probanden werden bei 75 °C zum Schwitzen angeregt; nach Beginn der Schweißproduktion wird mittels Silikonabdrucktechnik die Anzahl der schweißabgebenden Schweißdrüsen im Testareal ermittelt und gegen ein unbehandeltes Vergleichsareal abgeglichen.

Structure (SMILES)	antitranspirant bzw. schweißhemmende Wirkung (Restschweißmenge im Vergleich zum unbehandelten Areal)	AT-Wirkung, onset	AT-Leistung (preparation with up to 50 % Gew. in water, compared with preparation with 10 Gew.% Aluminiumchlorohydrat (Abbildung 1))
OCCC(O)c1ccccc1 (centres unmarked) [Phenyl-1,3-Propylenglykol]	schweißhemmende Wirkung		
OCCCO [1,3-Propylenglykol]	antitranspirant bzw. schweißhemmende Wirkung	unmittelbare AT-Wirkung (Sofort-Effekt)	gute AT-Leistung
CC(O)CC(C)O (centres unmarked) [2,4-Pentylenglykol]	antitranspirant bzw. schweißhemmende Wirkung	unmittelbare AT-Wirkung (Sofort-Effekt)	
CC(O)CCO (centres unmarked) [1,3-Butylenglykol]	antitranspirant bzw. schweißhemmende Wirkung	unmittelbare AT-Wirkung (Sofort-Effekt)	
CC(O)C(O)c1ccccc1 (centres unmarked)	schweißhemmende Wirkung		
CC(O)CCC(C)O (centres unmarked) [2,5 Hexandiol, 2,5-Hexandiol]	antitranspirant bzw. schweißhemmende Wirkung	unmittelbare AT-Wirkung (Sofort-Effekt)	
